Results from article PMC8512560, “Design, Synthesis, and Antipoliferative Activities of Novel Substituted Imidazole-Thione Linked Benzotriazole Derivatives” (Molecules, 2021).

What was measured:
HL-60 cells [1] = assay: Cell cycle analysis by PI flow cytometry; assay type: cell-based, human; conditions: 1 µM
Protocol: HL-60 cells were seeded at a density of 1 × 10^5 cells/well in 6-well plates and treated with CA-4 and compound BI9 (1 µM) for 48 and 72 h. The cells were collected by trypsinization and centrifuged at 800× g for 15 min. Cells were washed twice with ice-cold PBS and fixed in ice-cold 70% ethanol overnight at −20 °C. Fixed cells were centrifuged at 800× g for 15 min and stained with 50 μg/mL of PI, containing 50 μg/mL of DNase-free RNase A, at 37 °C for 30 min. The DNA content of cells (10,000 cells/experimental group) was analysed by flow cytometer at 488 nm using a FACSCalibur flow cytometer (BD Biosciences, San Jose, CA, USA) and all data were recorded and analysed using the CellQuest Software (Becton-Dickinson).

[2] = test system: HCT-116 human colon cancer cell line; assay: MTT viability assay, HCT-116; assay type: cell-based; conditions: Homo sapiens, HCT-116, 72 h, mean ± SD of three independent experiments, read-out: Antiproliferative Activities IC50, HCT-116
Protocol: (§1) All the human tumour cell lines MCF-7, HL-60, HCT-116, and HUVEC were cultured in Dulbecco’s Modified Eagle’s Medium (DMEM) with 10% fetal bovine serum, 2 mM L-glutamine and 100 µg/mL penicillin/streptomycin. Cells were maintained at 37 °C in 5% CO2 in a humidified incubator. All cells were sub-cultured three times/week by trypsinization using TrypLE Express (1X).
(§2) The Benzotriazole compounds were evaluated for antiproliferative effect using the MTT viability assay of various cancer cell lines (MCF-7, HCT-116 and HL-60) and the normal human umbilical vein endothelial cell line (HUVEC) to calculate the relative IC50 values for each compound. Cells were seeded in triplicate in 96-well plates at a density of 10 × 10^3 cells/mL in a total volume of 200 µL per well. 0.1% of DMSO was used as a vehicle control. After this time, they were treated with 2 µL test compound which had been pre-prepared as stock solutions in ethanol to furnish the concentration range of study, 10 nM to 100 µM, and re-incubated for a further 72 h. The culture medium was then removed, and the cells washed with 100 µL phosphate buffered saline (PBS) and 50 µL MTT added, to reach a final concentration of 1 mg/mL MTT added. Cells were incubated for 2 h in darkness at 37 °C. At this point solubilisation was begun through the addition of […] DMSO and the cells maintained at room temperature in darkness for 20 min to ensure thorough colour diffusion before reading the absorbance. Plates were incubated for 72 h at 37 °C + 5% CO2. The MTT (5 mg/mL in PBS) was added and incubated for another 4 h, and the optical density was detected with a microplate reader at 570 nm. Results were expressed as percentage viability relative to vehicle control (100%). Dose response curves were plotted and IC50 values (concentration of drug resulting in 50% reduction in cell survival) were obtained using the commercial software package Prism (GraphPad Software, Inc., La Jolla, CA, USA). All the experiments were repeated in at least three independent experiments.

[3] = test system: MCF-7, HL-60 and HCT-116 cancer cell lines; assay: MTT viability assay, values pooled over the cancer cell lines; assay type: cell-based, human; conditions: Homo sapiens, MCF-7, HL-60 and HCT-116; MTT; read-out: IC50 values range over the three cancer cell lines
Protocol: as §1, §2

[4] = test system: HL-60 human leukemia cancer cell line; assay: MTT viability assay, HL-60; assay type: cell-based; conditions: Homo sapiens, HL-60, 72 h, mean ± SD of three independent experiments, read-out: Antiproliferative Activities IC50, HL-60
Protocol: as §1, §2

Bcl-2 = assay: Western blot of Bcl-2 expression in HL-60 cells; assay type: cell-based, human; conditions: HL-60, 0.5 and 1 µM, compared to the untreated group
Protocol: HL-60 cells were seeded at a density of 1 × 10^5 cells/flask in T25 flasks. […] HL-60 cells were harvested in RIPA buffer supplemented with protease inhibitors (Roche Diagnostics), phosphatase inhibitor cocktail 2 (Sigma-Aldrich), and phosphatase inhibitor cocktail 3 (Sigma-Aldrich). Equal quantities of protein (as determined by a BCA assay) were resolved by SDS-PAGE (12%) followed by transfer to PVDF membranes. Membranes were blocked in 5% bovine serum albumin/TBST for 1 h. Membranes were incubated in the relevant primary antibodies at 4 °C overnight, washed with TBST, and incubated in horseradish peroxidase conjugated secondary antibody for 1 h at rt and washed again. Western blot analysis was performed as described above using antibodies directed against BAX [1:1000] (Cell Signaling Technology), PARP [1:500] (Cell Signaling Technology) and Bcl-2 [1:500] (Cell Signaling Technology) followed by incubation with a horseradish peroxidase-conjugated anti-mouse antibody [1:2000] (Promega, Madison, WI, USA). All blots were probed with β-actin antibody [1:5000] (Sigma) to confirm equal loading. Proteins were detected using enhanced chemiluminescent Western blot detection (Clarity Western ECL substrate) (Bio Rad) on the ChemiDoc MP System (Bio Rad). Experiments were performed on three independent occasions.

HL-60 cells [5] = assay: Annexin V/PI apoptotic assay by flow cytometry; assay type: cell-based, human; conditions: BI9 1 µM, CA-4 concentration not given, control 1.6%
Protocol: Apoptotic cell death was detected by flow cytometry using Annexin V and propidium iodide (PI). HL-60 Cells were seeded in 6 well plated at density of 1 × 10^5 cells/mL and treated with vehicle (0.1% (v/v) EtOH), positive control (CA-4) or compound BI9 (1 µM) for 48 and 72 h. Cells were then harvested and prepared for flow cytometric analysis. Cells were washed in 1X binding buffer ([…] binding buffer: 0.1M HEPES, pH 7.4; 1.4 M NaCl; 25 mM CaCl2 diluted in dH2O) and incubated in the dark for 30 min on ice in Annexin V-containing binding buffer [1:100]. Cells were then washed once in binding buffer and then re-suspended in PI-containing binding buffer [1:1000]. Samples were analysed immediately using the BD accuri flow cytometer and prism software for analysis the data. Four populations are produced during the assay Annexin V and PI negative (Q4, healthy cells), Annexin V positive and PI negative (Q3, early apoptosis), Annexin V and PI positive (Q2, late apoptosis) and Annexin V negative and PI positive (Q1, necrosis).

IC50 [2]: 2630 ± 170 nM
IC50 [3]: 400 to 3300 nM
IC50 [4]: 400 ± 30 nM
Compound: S=c1[nH]c(-n2nnc3ccccc32)cn1-c1ccc(Cl)cc1Cl [BI9, 4-(1H-Benzo[d][1,2,3]Triazol-1-yl)-1-(2,4-Dichlorophenyl)-1H-Imidazole-2(3H)-Thione]
Proportion of HL-60 cells in G2/M phase (HL-60 cells [1]; 48 h): 32.3%
Population in the sub-G1 phase (apoptosis) (HL-60 cells [1]; 48 h, untreated cells 1.5%): 23.1%
Proportion of HL-60 cells in G2/M phase (HL-60 cells [1]; 72 h): 35.1%
Population in the sub-G1 phase (apoptosis) (HL-60 cells [1]; 72 h, untreated cells 3.5%): 27.5%
Expression of pro-survival protein Bcl-2 (Bcl-2): down-regulated
Total fraction of early and late apoptotic cells (Annexin V positive) (HL-60 cells [5]; 48 h): 21.5%
Average fraction of Annexin V-staining positive cells (total apoptotic cells) (HL-60 cells [5]; 72 h): 19.2%
